From publication PMC6717862 (Drug Design, Development and Therapy, 2019)

Columns and labels:
[1] = biological target: EGFR (Homo sapiens, UniProt P00533); test: In vitro enzymatic activity assay; type: biochemical; details: read-out: EGFR inhibition%, inhibition percentage at 1.0 μM
[2] = hypoxia vs normoxia; cited from earlier work

EGFR, sequence (P00533 25-1210): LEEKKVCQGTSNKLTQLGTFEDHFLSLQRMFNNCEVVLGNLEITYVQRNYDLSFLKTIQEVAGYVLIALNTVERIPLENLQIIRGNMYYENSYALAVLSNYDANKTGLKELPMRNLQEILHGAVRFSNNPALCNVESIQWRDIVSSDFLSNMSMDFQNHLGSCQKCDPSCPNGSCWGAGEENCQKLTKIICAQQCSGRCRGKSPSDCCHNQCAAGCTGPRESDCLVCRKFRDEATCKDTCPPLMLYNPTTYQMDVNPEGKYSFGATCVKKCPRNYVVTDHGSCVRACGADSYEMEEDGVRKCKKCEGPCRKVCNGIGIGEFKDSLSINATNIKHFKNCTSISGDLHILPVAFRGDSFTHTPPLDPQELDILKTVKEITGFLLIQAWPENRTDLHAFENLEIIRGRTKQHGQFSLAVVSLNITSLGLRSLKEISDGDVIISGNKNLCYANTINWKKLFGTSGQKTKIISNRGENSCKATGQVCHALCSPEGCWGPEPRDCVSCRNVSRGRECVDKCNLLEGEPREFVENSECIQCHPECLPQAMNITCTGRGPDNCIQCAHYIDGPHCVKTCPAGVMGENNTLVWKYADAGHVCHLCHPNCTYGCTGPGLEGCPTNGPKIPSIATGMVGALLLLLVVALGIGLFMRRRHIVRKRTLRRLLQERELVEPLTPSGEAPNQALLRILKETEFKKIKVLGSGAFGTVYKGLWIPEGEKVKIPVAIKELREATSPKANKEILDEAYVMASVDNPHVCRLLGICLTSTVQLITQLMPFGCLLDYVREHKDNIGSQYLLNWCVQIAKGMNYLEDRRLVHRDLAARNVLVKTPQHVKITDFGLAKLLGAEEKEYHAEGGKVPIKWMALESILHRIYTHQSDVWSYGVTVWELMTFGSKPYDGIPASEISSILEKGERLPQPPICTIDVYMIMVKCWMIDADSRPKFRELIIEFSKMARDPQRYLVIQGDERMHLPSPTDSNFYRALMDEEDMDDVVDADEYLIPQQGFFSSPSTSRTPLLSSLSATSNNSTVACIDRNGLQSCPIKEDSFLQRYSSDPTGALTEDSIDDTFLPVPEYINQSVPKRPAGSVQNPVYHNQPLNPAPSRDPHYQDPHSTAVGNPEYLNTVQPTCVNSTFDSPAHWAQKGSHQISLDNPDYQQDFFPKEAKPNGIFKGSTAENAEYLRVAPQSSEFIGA

COc1cc2ncnc(Nc3ccc(OCCn4ccnc4[N+](=O)[O-])cc3)c2cc1OCCCN1CCOCC1 [Compound 16l, 7-Methoxy-6-(3-morpholinopropoxy)-N-(4-(2-(2-nitro-1H-imidazol-1-yl)ethoxy)phenyl)quinazolin-4-amine]
inhibition at 1 µM [1]: < 50%

Cn1c(COP(=O)(NCCBr)NCCBr)cnc1[N+](=O)[O-] [TH-302]
fold more effective in carcinoma hypoxia than in normoxia [2]: 270 fold

COCCOc1cc2ncnc(Nc3ccc(OCCn4ccnc4[N+](=O)[O-])cc3)c2cc1OCCOC [Compound 16h, 6,7-Bis(2-methoxyethoxy)-N-(4-(2-(2-nitro-1H-imidazol-1-yl)ethoxy)phenyl)quinazolin-4-amine]
inhibition at 1 µM [1]: < 50%

COc1cc2c(Nc3ccc(OCCn4ccnc4[N+](=O)[O-])cc3)ncnc2cc1OCCCN1CCOCC1 [Compound 16d, 6-Methoxy-7-(3-morpholinopropoxy)-N-(4-(2-(2-nitro-1H-imidazol-1-yl)ethoxy)phenyl)quinazolin-4-amine]
inhibition at 1 µM [1]: < 50%
